What follows are compounds tested on FGFR3 enzyme (assay: FGFR Enzymatic Assay (FRET peptide phosphorylation), FGFR3). Details: IC50 ratio showing FGFR3 selectivity; Table 2A, pre-incubated for 4 hours.
Type: biochemical
Method: The inhibitor potency of the exemplified compounds was measured in an enzyme assay that measures peptide phosphorylation using FRET measurements to detect product formation. Inhibitors were serially diluted in DMSO and a volume of 0.5 μL was transferred to the wells of a 384-well plate.
GraphPad prism3 was used to analyze the data.
`COc1cc(OC)c(F)c(N2Cc3cnc(-c4cn(C)nc4C)cc3C3(CC3)C2=O)c1F` [Example 21, 2′-(2,6-difluoro-3,5-dimethoxyphenyl)-6′-(1,3-dimethyl-1H-pyrazol-4-yl)-1′,2′-dihydro-3′H-spiro[cyclopropane-1,4′-[2,7]naphthyridin]-3′-one] showed an FGFR1/FGFR3 greater than 5.
For `COc1cc(OC)c(F)c(N2Cc3cnc(-c4cn(C)nc4C)cc3N(C[C@H]3CCOC3)C2=O)c1F` [Example 108, (R)-3-(2,6-difluoro-3,5-dimethoxyphenyl)-7-(1,3-dimethyl-1H-pyrazol-4-yl)-1-((tetrahydrofuran-3-yl)methyl)-3,4-dihydropyrido[4,3-d]pyrimidin-2(1H)-one], the FGFR1/FGFR3 was greater than 3 and the FGFR4/FGFR3 was greater than 3.
With `COc1cc(OC)c(F)c(N2Cc3cnc(-c4cn(C)nc4C)cc3N(c3ccc(C#N)cn3)C2=O)c1F` [Example 79, 6-(3-(2,6-difluoro-3,5-dimethoxyphenyl)-7-(1,3-dimethyl-1H-pyrazol-4-yl)-2-oxo-3,4-dihydropyrido[4,3-d]pyrimidin-1(2H)-yl)nicotinonitrile] the FGFR1/FGFR3 was greater than 5 and the FGFR4/FGFR3 was greater than 3.
Work on `COc1cc(OC)c(F)c(N2Cc3cnc(-c4cn(C)nc4C)cc3N(CCc3cnn(C)c3)C2=O)c1F` [Example 114, 3-(2,6-difluoro-3,5-dimethoxyphenyl)-7-(1,3-dimethyl-1H-pyrazol-4-yl)-1-(2-(1-methyl-1H-pyrazol-4-yl)ethyl)-3,4-dihydropyrido[4,3-d]pyrimidin-2(1H)-one] yielded an FGFR1/FGFR3 greater than 3 and an FGFR4/FGFR3 greater than 5.
Compound `COc1cc(OC)c(F)c(N2Cc3cnc(-c4cn(C)nc4C)cc3N(Cc3cncnc3)C2=O)c1F` [Example 84, 3-(2,6-difluoro-3,5-dimethoxyphenyl)-7-(1,3-dimethyl-1H-pyrazol-4-yl)-1-(pyrimidin-5-ylmethyl)-3,4-dihydropyrido[4,3-d]pyrimidin-2(1H)-one] has an FGFR1/FGFR3 greater than 5 and an FGFR4/FGFR3 greater than 5.
With `COc1cc(OC)c(F)c(N2Cc3cnc(-c4cn(C)nc4C)cc3N(c3ccc(F)c(C#N)c3)C2=O)c1F` [Example 66, 5-(3-(2,6-difluoro-3,5-dimethoxyphenyl)-7-(1,3-dimethyl-1H-pyrazol-4-yl)-2-oxo-3,4-dihydropyrido[4,3-d]pyrimidin-1(2H)-yl)-2-fluorobenzonitrile] the FGFR1/FGFR3 was greater than 5 and the FGFR4/FGFR3 was greater than 5.
Work on `COc1cc(OC)c(F)c(N2Cc3cnc(-c4cn(C)nc4C)cc3N(CC3CC3)C2=O)c1F` [Example 29, 1-(cyclopropylmethyl)-3-(2,6-difluoro-3,5-dimethoxyphenyl)-7-(1,3-dimethyl-1H-pyrazol-4-yl)-3,4-dihydropyrido[4,3-d]pyrimidin-2(1H)-one] yielded an FGFR1/FGFR3 greater than 1 and an FGFR4/FGFR3 greater than 5.
Compound `CCN1C(=O)N(c2c(F)c(OC)cc(OC)c2F)Cc2cnc(-c3cnn(C)c3)cc21` [Example 169, 3-(2,6-difluoro-3,5-dimethoxyphenyl)-1-ethyl-7-(1-methyl-1H-pyrazol-4-yl)-3,4-dihydropyrido[4,3-d]pyrimidin-2(1H)-one] has an FGFR1/FGFR3 greater than 3 and an FGFR4/FGFR3 greater than 5.
`COc1cc(OC)c(F)c(N2Cc3cnc(-c4cn(C)nc4C)cc3N(Cc3ccc4c(c3)OCCO4)C2=O)c1F` [Example 38, 3-(2,6-difluoro-3,5-dimethoxyphenyl)-1-((2,3-dihydrobenzo[b][1,4]dioxin-6-yl)methyl)-7-(1,3-dimethyl-1H-pyrazol-4-yl)-3,4-dihydropyrido[4,3-d]pyrimidin-2(1H)-one] was tested, and the FGFR1/FGFR3 was greater than 5 and the FGFR4/FGFR3 was greater than 5.
`CNC(=O)c1ccc(-c2cc3c(cn2)CN(c2c(F)c(OC)cc(OC)c2F)C(=O)C32CC2)cn1` [Example 18, 5-(2′-(2,6-difluoro-3,5-dimethoxyphenyl)-3′-oxo-2′,3′-dihydro-1′H-spiro[cyclopropane-1,4′-[2,7]naphthyridine]-6′-yl)-N-methylpicolinamide] showed an FGFR1/FGFR3 greater than 5.
For `CCN1C(=O)N(c2c(F)c(OC)cc(OC)c2F)Cc2cnc(-c3ccc(CC#N)cc3)cc21` [Example 180, 2-(4-(3-(2,6-difluoro-3,5-dimethoxyphenyl)-1-ethyl-2-oxo-1,2,3,4-tetrahydropyrido[4,3-d]pyrimidin-7-yl)phenyl)acetonitrile], the FGFR1/FGFR3 was greater than 5 and the FGFR4/FGFR3 was greater than 5.
Work on `COc1cc(OC)c(F)c(N2Cc3cnc(-c4cn(C)nc4C)cc3N(c3ccc4cn[nH]c4c3)C2=O)c1F` [Example 133, 3-(2,6-difluoro-3,5-dimethoxyphenyl)-7-(1,3-dimethyl-1H-pyrazol-4-yl)-1-(1H-indazol-6-yl)-3,4-dihydropyrido[4,3-d]pyrimidin-2(1H)-one] yielded an FGFR1/FGFR3 greater than 3 and an FGFR4/FGFR3 greater than 5.
`COc1cc(OC)c(F)c(N2Cc3cnc(-c4cn(C)nc4C)cc3N(c3ccc(S(C)(=O)=O)cc3)C2=O)c1F` [Example 98, 3-(2,6-difluoro-3,5-dimethoxyphenyl)-7-(1,3-dimethyl-1H-pyrazol-4-yl)-1-(4-(methylsulfonyl)phenyl)-3,4-dihydropyrido[4,3-d]pyrimidin-2(1H)-one] gave an FGFR1/FGFR3 greater than 5 and an FGFR4/FGFR3 greater than 10.
Work on `COc1cc(OC)c(F)c(N2Cc3cnc(-c4cn(C)nc4C)cc3N(Cc3cnn(C)c3)C2=O)c1F` [Example 72, 3-(2,6-difluoro-3,5-dimethoxyphenyl)-7-(1,3-dimethyl-1H-pyrazol-4-yl)-1-((1-methyl-1H-pyrazol-4-yl)methyl)-3,4-dihydropyrido[4,3-d]pyrimidin-2(1H)-one] yielded an FGFR1/FGFR3 greater than 5 and an FGFR4/FGFR3 greater than 10.
`COc1cc(OC)c(F)c(N2Cc3cnc(-c4cn(C)nc4C)cc3N(C3CCCC3)C2=O)c1F` [Example 32, 1-cyclopentyl-3-(2,6-difluoro-3,5-dimethoxyphenyl)-7-(1,3-dimethyl-1H-pyrazol-4-yl)-3,4-dihydropyrido[4,3-d]pyrimidin-2(1H)-one] gave an FGFR1/FGFR3 greater than 1 and an FGFR4/FGFR3 greater than 5.
Work on `COc1cc(OC)c(F)c(N2Cc3cnc(-c4cnn(C)c4)cc3C3(CC3)C2=O)c1F` [Example 186, 2′-(2,6-difluoro-3,5-dimethoxyphenyl)-6′-(1-methyl-1H-pyrazol-4-yl)-1′,2′-dihydro-3′H-spiro[cyclopropane-1,4′-[2,7]naphthyridin]-3′-one] yielded an FGFR1/FGFR3 greater than 5 and an FGFR4/FGFR3 greater than 5.
`COc1cc(OC)c(F)c(N2Cc3cnc(-c4cn(C)nc4C)cc3N(Cc3cnn(C4CC4)c3)C2=O)c1F` [Example 124, 1-((1-cyclopropyl-1H-pyrazol-4-yl)methyl)-3-(2,6-difluoro-3,5-dimethoxyphenyl)-7-(1,3-dimethyl-1H-pyrazol-4-yl)-3,4-dihydropyrido[4,3-d]pyrimidin-2(1H)-one] showed an FGFR1/FGFR3 greater than 10 and an FGFR4/FGFR3 greater than 10.
Work on `COc1cc(OC)c(F)c(N2Cc3cnc(-c4cnn(CC5CCCS(=O)(=O)N5)c4)cc3C3(CC3)C2=O)c1F` (centres unmarked) [Example 162, 2′-(2,6-difluoro-3,5-dimethoxyphenyl)-6′-{1-[(1,1-dioxido-1,2-thiazinan-3-yl)methyl]-1H-pyrazol-4-yl}-1′H-spiro[cyclopropane-1,4′-[2,7]naphthyridin]-3′(2′H)-one] yielded an FGFR1/FGFR3 greater than 5 and an FGFR4/FGFR3 greater than 1.
With `CCn1cc(-c2cc3c(cn2)CN(c2c(F)c(OC)cc(OC)c2F)C(=O)C32CC2)c(C)n1` [Example 158, 2′-(2,6-difluoro-3,5-dimethoxyphenyl)-6′-(1-ethyl-3-methyl-1H-pyrazol-4-yl)-1′H-spiro[cyclopropane-1,4′-[2,7]naphthyridin]-3′(2′H)-one] the FGFR1/FGFR3 was greater than 5 and the FGFR4/FGFR3 was greater than 3.
In the case of `CCN1C(=O)N(c2c(F)c(OC)cc(OC)c2F)Cc2cnc(-c3cn(CC(=O)N4CCOCC4)nc3C)cc21` [Example 51, 3-(2,6-difluoro-3,5-dimethoxyphenyl)-1-ethyl-7-(3-methyl-1-(2-morpholino-2-oxoethyl)-1H-pyrazol-4-yl)-3,4-dihydropyrido[4,3-d]pyrimidin-2(1H)-one], the FGFR1/FGFR3 is reported as greater than 1 and the FGFR4/FGFR3 is reported as greater than 1.
Work on `COc1cc(OC)c(F)c(N2Cc3cnc(-c4cn(C)nc4C)cc3N(c3cn[nH]c3)C2=O)c1F` [Example 129, 3-(2,6-difluoro-3,5-dimethoxyphenyl)-7-(1,3-dimethyl-1H-pyrazol-4-yl)-1-(1H-pyrazol-4-yl)-3,4-dihydropyrido[4,3-d]pyrimidin-2(1H)-one] yielded an FGFR1/FGFR3 greater than 5 and an FGFR4/FGFR3 greater than 10.
`CCN1C(=O)N(c2c(F)c(OC)cc(OC)c2F)Cc2cnc(-c3ccc(C4(C#N)CC4)cc3)cc21` [Example 183, 1-(4-(3-(2,6-difluoro-3,5-dimethoxyphenyl)-1-ethyl-2-oxo-1,2,3,4-tetrahydropyrido[4,3-d]pyrimidin-7-yl)phenyl)cyclopropanecarbonitrile] gave an FGFR1/FGFR3 greater than 3 and an FGFR4/FGFR3 greater than 10.
Compound `COc1cc(OC)c(F)c(N2Cc3cnc(-c4cn(C)nc4C)cc3N(Cc3cnccn3)C2=O)c1F` [Example 85, 3-(2,6-difluoro-3,5-dimethoxyphenyl)-7-(1,3-dimethyl-1H-pyrazol-4-yl)-1-(pyrazin-2-ylmethyl)-3,4-dihydropyrido[4,3-d]pyrimidin-2(1H)-one] has an FGFR1/FGFR3 greater than 5 and an FGFR4/FGFR3 greater than 10.
Compound `COc1cc(OC)c(F)c(N2Cc3cnc(-c4cn(CC(=O)N5CCOCC5)nc4C)cc3C3(CC3)C2=O)c1F` [Example 159, 2′-(2,6-difluoro-3,5-dimethoxyphenyl)-6′-(3-methyl-1-(2-morpholino-2-oxoethyl)-1H-pyrazol-4-yl)-1′H-spiro[cyclopropane-1,4′-[2,7]naphthyridin]-3′(2′H)-one] has an FGFR1/FGFR3 greater than 5 and an FGFR4/FGFR3 greater than 3.
`COc1cc(OC)c(F)c(N2Cc3cnc(-c4cn(C)nc4C)cc3N(c3ncccn3)C2=O)c1F` [Example 105, 3-(2,6-difluoro-3,5-dimethoxyphenyl)-7-(1,3-dimethyl-1H-pyrazol-4-yl)-1-(pyrimidin-2-yl)-3,4-dihydropyrido[4,3-d]pyrimidin-2(1H)-one] was tested, and the FGFR1/FGFR3 was greater than 3 and the FGFR4/FGFR3 was greater than 5.
With `COc1cc(OC)c(F)c(N2Cc3cnc(-c4cn(C)nc4C)cc3N(c3cnc(C)cn3)C2=O)c1F` [Example 107, 3-(2,6-difluoro-3,5-dimethoxyphenyl)-7-(1,3-dimethyl-1H-pyrazol-4-yl)-1-(5-methylpyrazin-2-yl)-3,4-dihydropyrido[4,3-d]pyrimidin-2(1H)-one] the FGFR1/FGFR3 was greater than 3 and the FGFR4/FGFR3 was greater than 10.

Reference: patent US11173162B2, “Bicyclic heterocycles as FGFR4 inhibitors” (Incyte Corporation, priority 2015, dated 2021)
